Measured values from patent US20230010886A1 (SUZHOU PUHE BIOPHARMA CO., LTD., priority 2019, published 2023).

What was measured:
Full length SHP2 enzyme = target: T1, Full length SHP2 enzyme (Homo sapiens, UniProt Q06124); test: SHP2 phosphatase assay; assay type: biochemical; conditions: 1 μM IRS-1 peptide, DiFMUP substrate
T1 construct: Full length SHP2 enzyme (diluted to 0.1 nM in reaction buffer)
T1 sequence (Q06124 1-593): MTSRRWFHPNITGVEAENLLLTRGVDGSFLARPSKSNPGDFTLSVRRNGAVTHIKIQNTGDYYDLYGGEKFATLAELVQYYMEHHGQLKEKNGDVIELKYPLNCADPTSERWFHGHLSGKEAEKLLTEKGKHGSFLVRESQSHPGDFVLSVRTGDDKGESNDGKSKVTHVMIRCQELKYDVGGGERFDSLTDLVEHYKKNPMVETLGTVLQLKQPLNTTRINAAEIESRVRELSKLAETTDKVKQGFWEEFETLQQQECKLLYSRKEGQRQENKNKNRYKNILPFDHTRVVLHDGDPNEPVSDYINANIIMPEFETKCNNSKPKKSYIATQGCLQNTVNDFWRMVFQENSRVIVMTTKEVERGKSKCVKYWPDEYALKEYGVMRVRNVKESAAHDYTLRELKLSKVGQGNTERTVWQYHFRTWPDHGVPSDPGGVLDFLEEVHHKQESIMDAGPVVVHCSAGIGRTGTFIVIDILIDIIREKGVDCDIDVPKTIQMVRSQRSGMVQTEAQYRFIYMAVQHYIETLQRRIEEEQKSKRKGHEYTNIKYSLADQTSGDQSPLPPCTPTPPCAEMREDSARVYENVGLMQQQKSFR
Protocol: IC50 values were determined at room temperature in 384-well black polystyrene plate, using a final reaction volume of 15 μL and the following assay buffer conditions: 60 mM Hepes (pH=7.2), 75 mM NaCl, 75 mM KCl, and 1 mM EDTA, 0.05% P-20, 5 mM dithiothreitol (DTT). Full length SHP2 enzyme (diluted to 0.1 nM in reaction buffer) were co-incubated with 1 μM IRS-1 peptide and 0.01 nM to 10 μM compounds of the disclosure for 60 min. The surrogate substrate DiFMUP (5 μL, 100 μM) was added, and incubated at rt for 60 min. The reaction was then quenched by the addition of 5 μL of a 40 μM solution of bpV(Phen). The fluorescence signal was monitored using a microplate reader (Envision, Perkin-Elmer) using excitation and emission wavelengths of 360 nm and 450 nm, respectively. The inhibitor dose-response curves were analyzed using normalized IC50 regression curve fitting with control-based normalization.

KYSE-520 cell line = test: Cell proliferation assay (CellTiter Glo), KYSE-520; assay type: cell-based; conditions: Homo sapiens, 3-5 days
Protocol: Firstly, the cells were seeded in 384-well cell culture plate and incubate overnight. The test compounds were added to the cell plate and incubated for 3-5 days. The cell plate was then detected using CellTiter Glo reagents.

NCI-H358 cells = test: Combination treatment of a SHP2 inhibitor with other therapeutic agents, NSCLC with KRAS mutant xenograft; assay type: in vivo, BALB/c nude mice; conditions: 10 mg/kg per day combined with CDK4/6 inhibitor SYB-020097 (30 mg/kg per day), oral once daily for 28 days, mice
Protocol: (§1) NCI-H358 cells were expanded in culture, harvested and injected subcutaneously into 6-8 weeks old female BALB/c nude mice (5×10^6 cell/each mouse, supplemented with Matrigel (1:1) for tumor development, n=9 per group). Subsequent administration of a compound or combination of compounds by oral gavage started when the mean tumor size reached approximately 150-200 mm^3. During the treatment (once a day for 4 weeks), the tumor volumes were measured using a caliper. Statistical analysis of difference in tumor volume among the groups were evaluated using a one-way ANOVA. Vehicle alone was the negative control.

Mai-Pa-ca-2 cells = test: Pancreatic cancer Mia-Pa-Ca-2 xenograft studies; assay type: in vivo, BALB/c nude mice
Protocol: as §1, with “Mai-Pa-ca-2” for “NCI-H358”, “compound” for “compound or combination of compounds”, “21 days),” for “4 weeks),”

KYSE-520 cells = test: Esophageal KYSE-520 xenograft model; assay type: in vivo, BALB/c nude mice; conditions: oral 30 mg/kg per day, once a day for 4 weeks, mice
Protocol: as §1, with “KYSE-520” for “NCI-H358”, “compound” for “compound or combination of compounds”

| Structure (SMILES) | IC50 (Full length SHP2 enzyme) [nM] | IC50 (KYSE-520 cell line) [nM] | further results |
| --- | --- | --- | --- |
| C[C@@H]1OCC2(CCN(c3ncc(Sc4ccnc(F)c4Cl)[nH]c3=O)CC2)[C@@H]1N [Example 83, 3-((3S,4S)-4-amino-3-methyl-2-oxa-8-azaspiro[4.5]decan-8-yl)-6-((3-chloro-2-fluoropyridin-4-yl)thio)pyrazin-2(1H)-one] | ≤ 50 | < 1000 |  |
| C[C@@H]1OCC2(CCN(c3ncc(Sc4cccc(F)c4Cl)[nH]c3=O)CC2)[C@@H]1N [Example 109, 3-((3S,4S)-4-amino-3-methyl-2-oxa-8-azaspiro[4.5]decan-8-yl)-6-((2-chloro-3-fluorophenyl)thio)pyrazin-2(1H)-one] | ≤ 50 | < 5000 |  |
| N[C@@H]1COCC12CCN(c1ncc(Sc3cccc(Cl)c3Cl)[nH]c1=O)CC2 [Example 73, (S)-3-(4-amino-2-oxa-8-azaspiro[4.5]decan-8-yl)-6-((2,3-dichlorophenyl)thio)pyrazin-2 (1H)-one] | ≤ 50 | < 5000 |  |
| C[C@@H]1OCC2(CCN(c3ncc(Sc4ccnc(F)c4F)[nH]c3=O)CC2)[C@@H]1N [Example 84] | ≤ 50 | < 1000 |  |
| CC1(CN)CCN(c2ncc(Sc3cccc(NC(=O)c4c(O)nc5ccccn5c4=O)c3Cl)[nH]c2=O)CC1 [Example 29, N-(3-((5-(4-(aminomethyl)-4-methylpiperidin-1-yl)-6-oxo-1,6-dihydropyrazin-2-yl)thio)-2-chlorophenyl)-2-hydroxy-4-oxo-4H-pyrido[1,2-a]pyrimidine-3-carboxamide] | ≤ 50 | < 5000 |  |
| C[C@@H]1OCC2(CCN(c3ncc(Sc4cccc(F)c4F)[nH]c3=O)CC2)[C@@H]1N [Example 82, 3-((3S,4S)-4-amino-3-methyl-2-oxa-8-azaspiro[4.5]decan-8-yl)-6-((2,3-difluorophenyl)thio)pyrazin-2(1H)-one] | ≤ 50 | < 5000 |  |
| C[C@@H]1OCC2(CCN(c3ncc(Sc4ccnc(Cl)c4Cl)[nH]c3=O)CC2)[C@@H]1N [Example 81, 3-((3S,4S)-4-amino-3-methyl-2-oxa-8-azaspiro[4.5]decan-8-yl)-6-((2,3-dichloropyridin-4-yl)thio)pyrazin-2(1H)-one] | ≤ 50 | < 1000 |  |
| NC1COCC12CCN(c1ncc(Sc3cccc(Cl)c3Cl)[nH]c1=O)CC2 (stereo not drawn) [Example 10, 3-(4-amino-2-oxa-8-azaspiro[4.5]decan-8-yl)-6-((2,3-dichlorophenyl)thio)pyrazin-2 (1H)-one] |  | < 5000 |  |
| C[C@@H]1OCC2(CCN(c3ncc(Sc4cccc(Cl)c4Cl)[nH]c3=O)CC2)[C@@H]1N |  |  | improvement of combination over monotherapy (NCI-H358 cells): more than 50%; reduction of tumor growth, combination vs each compound alone (Mai-Pa-ca-2 cells; 30 mg/kg per day co-administered with CDK4/6 inhibitor SYB-020097 (50 mg/kg per day)): significantly higher reduction of tumor growth; reduction of tumor growth, combination vs each compound alone (Mai-Pa-ca-2 cells; 30 mg/kg per day co-administered with MEK inhibitor SYB-020099 (1 mg/kg per day)): significantly higher reduction of tumor growth; anti-tumor activity compared with reference compound (KYSE-520 cells): superior anti-tumor activities than reference compound RMC-4550; tumor growth inhibition (KYSE-520 cells): more than 90% |
| CC1(CN)CCN(c2ncc(Sc3cccc(NC(=O)c4c(O)nc5cnccn5c4=O)c3Cl)[nH]c2=O)CC1 [Example 30, N-(3-((5-(4-(aminomethyl)-4-methylpiperidin-1-yl)-6-oxo-1,6-dihydropyrazin-2-yl)thio)-2-chlorophenyl)-2-hydroxy-4-oxo-4H-pyrazino[1,2-a]pyrimidine-3-carboxamide] | ≤ 50 |  |  |
| CC1(CN)CCN(c2ncc(Sc3cccc(NC(=O)c4c(O)nc5n(c4=O)CCCC5)c3Cl)[nH]c2=O)CC1 [Example 33, N-(3-((5-(4-(aminomethyl)-4-methylpiperidin-1-yl)-6-oxo-1,6-dihydropyrazin-2-yl)thio)-2-chlorophenyl)-2-hydroxy-4-oxo-6,7,8,9-tetrahydro-4H-pyrido [1,2-a]pyrimidine-3-carboxamide] | ≤ 50 |  |  |
| CC1(CN)CCN(c2ncc(Sc3cccc(NC(=O)c4c(O)nc5sccn5c4=O)c3Cl)[nH]c2=O)CC1 [Example 31, N-(3-((5-(4-(aminomethyl)-4-methylpiperidin-1-yl)-6-oxo-1,6-dihydropyrazin-2-yl)thio)-2-chlorophenyl)-7-hydroxy-5-oxo-5H-thiazolo[3,2-a]pyrimidine-6-carboxamide] | ≤ 50 | < 5000 |  |
